Columns and labels:
CDK2/Cyclin E1(14-475) = CDK2/Cyclin E1(14-475) (Homo sapiens, UniProt P24941); assay: Caliper LabChip EZ Reader mobility shift assay, inhibition of CDK2/Cyclin E1 activity; assay type: biochemical; details: class symbols A-D
Procedure, shortened: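 Mobility-shift readout of fluorescent peptide (1.5 μM final) phosphorylation by 2.5 nM CDK2/Cyclin E1(14-475) at 100 μM ATP, pH 7.5. Compounds pre-incubated 30 min with enzyme before substrate addition; 100-min reaction halted by EDTA, normalized % activity fitted to four-parameter curve for IC50.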

Kuramochi cells = assay: BrdU cell proliferation assay (colorimetric ELISA), Kuramochi cells; assay type: cell-based; details: class symbols A-D
Procedure, shortened: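 Proliferation was read as BrdU incorporation: a 1 h pulse, then fixation and peroxidase-antibody ELISA at 450 nm, with values normalized to DMSO after empty-well subtraction. Treatment lasted 4 days on Kuramochi cells seeded at 2,000/well, using four 3-fold compound dilutions from 10 mM stocks. RB^KO Kuramochi cells were run in parallel for specificity.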

SMILES | IC50 (CDK2/Cyclin E1(14-475)) | IC50 (Kuramochi cells)
CNC(=O)[C@H](CCCc1ccccc1)NC(=O)C1CN(C(=O)Cc2c[nH]c3cc(Cl)ccc23)CC2CN(C(=O)c3ccc4c(c3)c(OC)nn4C(C)C)CC21 (stereo partly drawn) [I-84] | 0.5 to 5 µM | > 10 µM
CNC(=O)[C@H](CCCc1ccccc1)NC(=O)C1CN(C(=O)Cc2c[nH]c3cc(Cl)ccc23)CC2CN(C(=O)c3ccc(OC(C)C)c4occc34)CC21 (stereo partly drawn) [I-85] | ≤ 0.5 µM | > 10 µM
COc1cc(C(=O)N2CC3CN(C(=O)Cc4c[nH]c5cc(Cl)ccc45)CC(C(=O)N[C@@H]4CCCN(Cc5ccccc5)C4)C3C2)ccc1OC(C)C (stereo partly drawn) [I-88, N—((R)-1-benzylpiperidin-3-yl)-5-(2-(6-chloro-1H-indol-3-yl)acetyl)-2-(4-isopropoxy-3-methoxybenzoyl)octahydro-1H-pyrrolo[3,4-c]pyridine-7-carboxamide] | > 10 µM | > 10 µM
COc1cc(C(=O)N2CC3CN(C(=O)Cc4c[nH]c5cc(Cl)ccc45)CC(C(=O)NC4CCCN(C(=O)c5ccccc5)C4)C3C2)ccc1OC(C)C (stereo not drawn) [I-89] | > 10 µM | > 10 µM
COc1cc(C(=O)N2CC3CN(C(=O)Cc4c[nH]c5cc(Cl)ccc45)CC(C(=O)NC4CCCN(C(=O)Cc5ccccc5)C4)C3C2)ccc1OC(C)C (stereo not drawn) [I-90] | > 10 µM | > 10 µM
CNC(=O)[C@H](CCCc1ccccn1)NC(=O)C1CN(C(=O)Cc2c[nH]c3cc(Cl)ccc23)CC2CN(C(=O)c3ccc(OC(C)C)c(OC)c3)CC21 (stereo partly drawn) [I-91] | 0.5 to 5 µM | > 10 µM
CNC(=O)[C@H](NC(=O)C1CN(C(=O)Cc2c[nH]c3cc(Cl)ccc23)CC2CN(C(=O)c3ccc(OC(C)C)c(OC)c3)CC21)[C@@H](C)OCc1ccccc1 (stereo partly drawn) [I-92] | > 10 µM | > 10 µM
CNC(=O)C(CCCC1CCCC1)NC(=O)C1CN(C(=O)Cc2c[nH]c3cc(Cl)ccc23)CC2CN(C(=O)c3ccc(OC(C)C)c(OC)c3)CC21 (stereo not drawn) [I-93] | 0.5 to 5 µM | > 10 µM
CNC(=O)[C@H](CCCC1CCC(C(F)(F)F)CC1)NC(=O)C1CN(C(=O)Cc2c[nH]c3cc(Cl)ccc23)CC2CN(C(=O)c3ccc(OC(C)C)c(OC)c3)CC21 (stereo partly drawn) [I-94] | > 10 µM | > 10 µM
CNC(=O)[C@@H](CCCC(C)(C)C)NC(=O)C1CN(C(=O)Cc2c[nH]c3cc(Cl)ccc23)CC2CN(C(=O)c3ccc(OC(C)C)c(OC)c3)CC21 (stereo partly drawn) [I-95] | 0.5 to 5 µM | > 10 µM
CNC(=O)[C@H](CCCC(C)C)NC(=O)C1CN(C(=O)Cc2c[nH]c3cc(Cl)ccc23)CC2CN(C(=O)c3ccc(OC(C)C)c(OC)c3)CC21 (stereo partly drawn) [I-97] | 0.5 to 5 µM | > 10 µM
COc1cc(C(=O)N2CC3CN(C(=O)Cc4c[nH]c5cc(Cl)ccc45)CC(C(=O)N[C@@H](C)C(=O)NCCCc4ccccc4)C3C2)ccc1OC(C)C (stereo partly drawn) [I-98] | 0.5 to 5 µM | > 10 µM
COc1cc(C(=O)N2CC3CN(C(=O)Cc4c[nH]c5cc(Cl)ccc45)CC(C(=O)NCC(=O)NCCCc4ccccc4)C3C2)ccc1OC(C)C (stereo not drawn) [I-99] | 0.5 to 5 µM | > 10 µM
CNC(=O)[C@@H](NC(=O)C1CN(C(=O)Cc2c[nH]c3cc(Cl)ccc23)CC2CN(C(=O)c3ccc(OC(C)C)c(OC)c3)CC21)[C@@H](C)OCc1ccccc1 (stereo partly drawn) [I-102] | 0.5 to 5 µM | > 10 µM
COc1cc(C(=O)N2CC3CN(C(=O)Cc4c[nH]c5cc(Cl)ccc45)CC(C(=O)N[C@@H](C)C(=O)N(C)CCCc4ccccc4)C3C2)ccc1OC(C)C (stereo partly drawn) [I-103] | 0.5 to 5 µM | > 10 µM
CNC(=O)[C@@H](CCCC1CCC(C(F)(F)F)CC1)NC(=O)C1CN(C(=O)Cc2c[nH]c3cc(Cl)ccc23)CC2CN(C(=O)c3ccc(OC(C)C)c(OC)c3)CC21 (stereo partly drawn) [I-104] | > 10 µM | > 10 µM
CNC(=O)[C@H](NC(=O)C1CN(C(=O)Cc2c[nH]c3cc(Cl)ccc23)CC2CN(C(=O)c3ccc(OC(C)C)c(OC)c3)CC21)[C@H](C)OCc1ccccc1 (stereo partly drawn) [I-105] | > 10 µM | > 10 µM
CNC(=O)[C@@H](NC(=O)C1CN(C(=O)Cc2c[nH]c3cc(Cl)ccc23)CC2CN(C(=O)c3ccc(OC(C)C)c(OC)c3)CC21)[C@H](C)OCC1CCCCC1 (stereo partly drawn) [I-107] | ≤ 0.5 µM | 0.5 to 5 µM
CNC(=O)[C@H](NC(=O)C1CN(C(=O)Cc2c[nH]c3cc(Cl)ccc23)CC2CN(C(=O)c3ccc(OC(C)C)c(OC)c3)CC21)[C@@H](C)OCC1CCCCC1 (stereo partly drawn) [I-108] | > 10 µM | > 10 µM
COc1cc(C(=O)N2CC3CN(C(=O)Cc4c[nH]c5cc(Cl)ccc45)CC(C(=O)N[C@@H](CCCc4ccccc4)C(N)=O)C3C2)ccc1OC(C)C (stereo partly drawn) [I-109] | 0.5 to 5 µM | > 10 µM

SMILES | IC50 (CDK2/Cyclin E1(14-475)) | IC50 (Kuramochi cells)
CNC(=O)[C@@H](CCCC1CCCCC1)NC(=O)C1CN(C(=O)Cc2c[nH]c3cc(Cl)ccc23)CC2CN(C(=O)c3ccc(OC(C)C)c(OC)c3)CC21 (stereo partly drawn) [I-112] | 5 to 10 µM | > 10 µM
CNC(=O)[C@H](CCCC1CCCCC1)NC(=O)C1CN(C(=O)Cc2c[nH]c3cc(Cl)ccc23)CC2CN(C(=O)c3ccc(OC(C)C)c(OC)c3)CC21 (stereo partly drawn) [I-113] | 0.5 to 5 µM | > 10 µM
CNC(=O)[C@@H](CCCC(C)C)NC(=O)C1CN(C(=O)Cc2c[nH]c3cc(Cl)ccc23)CC2CN(C(=O)c3ccc(OC(C)C)c(OC)c3)CC21 (stereo partly drawn) [I-114] | > 10 µM | > 10 µM
CNC(=O)[C@H](CCCc1ccc(O)cc1)NC(=O)C1CN(C(=O)Cc2c[nH]c3cc(Cl)ccc23)CC2CN(C(=O)c3ccc(OC(C)C)c(OC)c3)CC21 (stereo partly drawn) [I-115] | 5 to 10 µM | > 10 µM
CNC(=O)[C@H](CCCC1CCC(O)CC1)NC(=O)C1CN(C(=O)Cc2c[nH]c3cc(Cl)ccc23)CC2CN(C(=O)c3ccc(OC(C)C)c(OC)c3)CC21 (stereo partly drawn) [I-116] | > 10 µM | > 10 µM
CNC(=O)[C@H](CCCc1cccnc1)NC(=O)C1CN(C(=O)Cc2c[nH]c3cc(Cl)ccc23)CC2CN(C(=O)c3ccc(OC(C)C)c(OC)c3)CC21 (stereo partly drawn) [I-126] | 0.5 to 5 µM | > 10 µM
CNC(=O)[C@H](CCCc1ccccc1O)NC(=O)C1CN(C(=O)Cc2c[nH]c3cc(Cl)ccc23)CC2CN(C(=O)c3ccc(OC(C)C)c(OC)c3)CC21 (stereo partly drawn) [I-127] | 0.5 to 5 µM | > 10 µM
CNC(=O)[C@H](CCCc1cccc(O)c1)NC(=O)C1CN(C(=O)Cc2c[nH]c3cc(Cl)ccc23)CC2CN(C(=O)c3ccc(OC(C)C)c(OC)c3)CC21 (stereo partly drawn) [I-128] | 5 to 10 µM | 0.5 to 5 µM
CNC(=O)[C@H](NC(=O)C1CN(C(=O)Cc2c[nH]c3cc(Cl)ccc23)CC2CN(C(=O)c3ccc(OC(C)C)c(OC)c3)CC21)[C@H](C)OCC1CCCCC1 (stereo partly drawn) [I-129] | > 10 µM | > 10 µM
CNC(=O)[C@H](CCCC1CCOCC1)NC(=O)C1CN(C(=O)Cc2c[nH]c3cc(Cl)ccc23)CC2CN(C(=O)c3ccc(OC(C)C)c(OC)c3)CC21 (stereo partly drawn) [I-130] | 0.5 to 5 µM | > 10 µM
CNC(=O)[C@@H](CCCC1CCOCC1)NC(=O)C1CN(C(=O)Cc2c[nH]c3cc(Cl)ccc23)CC2CN(C(=O)c3ccc(OC(C)C)c(OC)c3)CC21 (stereo partly drawn) [I-131] | 5 to 10 µM | 0.5 to 5 µM
CNC(=O)[C@@H](CCCC1CCCC1)NC(=O)C1CN(C(=O)Cc2c[nH]c3cc(Cl)ccc23)CC2CN(C(=O)c3ccc(OC(C)C)c(OC)c3)CC21 (stereo partly drawn) [I-132] | 0.5 to 5 µM | > 10 µM
CNC(=O)[C@H](CCCc1ccc(C(F)(F)F)cc1)NC(=O)C1CN(C(=O)Cc2c[nH]c3cc(Cl)ccc23)CC2CN(C(=O)c3ccc(OC(C)C)c(OC)c3)CC21 (stereo partly drawn) [I-133] | 0.5 to 5 µM | > 10 µM
CNC(=O)[C@@H](CCCc1ccc(C(F)(F)F)cc1)NC(=O)C1CN(C(=O)Cc2c[nH]c3cc(Cl)ccc23)CC2CN(C(=O)c3ccc(OC(C)C)c(OC)c3)CC21 (stereo partly drawn) [I-134] | > 10 µM | > 10 µM
CNC(=O)C(NC(=O)C1CN(C(=O)Cc2c[nH]c3cc(Cl)ccc23)CC2CN(C(=O)c3ccc(OC(C)C)c(OC)c3)CC21)[C@@H](C)OCC1CCCCC1 (stereo partly drawn) [I-135] | ≤ 0.5 µM | 0.5 to 5 µM
CNC(=O)[C@H](C/C=C/c1ccccc1)NC(=O)C1CN(C(=O)Cc2c[nH]c3cc(Cl)ccc23)CC2CN(C(=O)c3ccc(OC(C)C)c(OC)c3)CC21 (stereo partly drawn) [I-136] | 0.5 to 5 µM | > 10 µM
CNC(=O)[C@H](CC#Cc1ccccc1)NC(=O)C1CN(C(=O)Cc2c[nH]c3cc(Cl)ccc23)CC2CN(C(=O)c3ccc(OC(C)C)c(OC)c3)CC21 (stereo partly drawn) [I-137] | > 10 µM | > 10 µM
CNC(=O)[C@H](CCCc1ccncc1)NC(=O)C1CN(C(=O)Cc2c[nH]c3cc(Cl)ccc23)CC2CN(C(=O)c3ccc(OC(C)C)c(OC)c3)CC21 (stereo partly drawn) [I-138] | > 10 µM | > 10 µM
CNC(=O)[C@H](CCCc1cccc2[nH]nnc12)NC(=O)C1CN(C(=O)Cc2c[nH]c3cc(Cl)ccc23)CC2CN(C(=O)c3ccc(OC(C)C)c(OC)c3)CC21 (stereo partly drawn) [I-139] | 0.5 to 5 µM | > 10 µM

Source: patent US12053459B2, “CDK2 inhibitors and methods of using the same” (Cedilla Therapeutics, Inc., priority 2021, dated 2024)
